Laboratory results reported in paper PMC6429214, “Design, Synthesis and Biological Evaluation of Isoxazole-Based CK1 Inhibitors Modified with Chiral Pyrrolidine Scaffolds” (Molecules, 2019).

How the values were obtained:
[1] = tested on: MCF-7 cells; test: MTT cell viability assay MCF-7; assay type: cell-based, human; conditions: Homo sapiens, MCF7, 48 h, mean ± SD
Description: The human colon adenocarcinoma cell line HT-29 was grown in McCoy’s 5A medium, whereas MCF7 cells were grown in DMEM medium. All media were supplemented with 10% fetal calf serum (FCS), 100 units/mL penicillin, 100 µg/mL streptomycin and 2 mM glutamine. All cells were grown at 37 °C in a humidified 5% carbon dioxide atmosphere.
In order to analyze the effects of selected inhibitors on the cell viability of HT-29 and MCF7 cells, MTT assays were performed. 1 × 10^4 cells/well were seeded in 96-well cell culture plates. After 24 h cells were treated with increasing concentrations of the indicated inhibitor compounds, with untreated and DMSO-treated cells as control. After an incubation period of 48 h, 10 µL of MTT solution (5 mg/mL in PBS) were added and cells were incubated for 4 h. MTT-containing medium was carefully removed and 100 µL acidic isopropanol (0.04 N HCl in isopropanol) per well were added. To dissolve formazan crystals, plates were shaken for 30 min on an orbital shaker in the dark. Finally, dissolved crystals were measured spectrophotometrically at 570 nm. All experiments were performed in triplicate with four technical replicates per assay. Results were normalized considering the mean optical density value of control wells as 100%. GraphPad Prism 6 software (San Diego, CA, USA) was used to calculate EC50 values.

[2] = LC-MS of aqueous solutions with and without PEG; assay type: physicochemical; conditions: LC-MS over 7 days, not in solutions without PEG
From the text: Since all analytical data for the originally employed inhibitors was consistent with the given structures, we postulate that the incorporation of an additional methylene group occurred via spontaneous Pictet-Spengler cyclization during crystallization. In line with this notion, PEG, which has been used in our soaking solutions, is known to generate formaldehyde traces that have been shown in the past to affect the derivatization of both, proteins and ligands. To further corroborate this hypothesis, we examined whether simple exposure of 29d/e to formaldehyde would give rise to the same Pictet-Spengler products 31a/b (Scheme 5). Indeed, when compounds 29d/e were treated with formaldehyde at room temperature 31a/b were formed readily and the obtained spectroscopic data was consistent with the predicted Pictet-Spengler products. In addition, aqueous solutions of 29d and 29e with and without PEG were analyzed by liquid chromatography-mass spectrometry (LC-MS) over a period of 7 days.
LC-MS was performed with a Bruker Esquire ~LC ion trap mass spectrometer (Bremen, Germany) in the positive ion mode (dry gas 9 L/min, nebulizer 35 psi, drying temperature 350 °C) after chromatographic separation using an Agilent 1100 HPLC system (Waldbronn, Germany) with a RP-8 column (Agilent Eclipse XDB-C8, 150 × 4.6 mm, 5 μm) and a 0.1% acetic acid/acetonitrile gradient.

[3] = target: T1, CDC42BPA (Homo sapiens, UniProt Q5VT25); test: 33PanQinase panel; assay type: biochemical; conditions: read-out: Residual Activity (%)
T1 construct: purchased ProQinase
Description: (§1) Figure 5 Dendrogram representation of the selectivity profile of 29d at a concentration of 1 μM in a panel of 320 wild-type kinases (ProQinase, Freiburg, Germany). The residual kinase activity was determined compared to DMSO control. Images were generated using TREEspot Software Tool, DISCOVERX CORPORATION 2010. […]
(§2) Table S2. Selectivity profile of compound 29d. The inhibitor has been screened at a concentration of 1 µM over a panel of 320 wild-type protein kinases by ProQinase GmbH (Freiburg, Germany) using an activity-based radiometric 33PanQinase® assay. Results are presented as percentage of residual kinase activity relative to […]
(§3) control. The final DMSO concentration was 1 % in each reaction-mix. Classification of protein kinase families refers to Manning et al. (Manning, G.; Whyte, D. B.; Martinez, R.; Hunter, T.; Sudarsanam, S. The Protein Kinase Complement of the Human Genome. Science 2002, 298, 1912–1934): AGC = containing PKA, PKG, PKC families; […] = containing Cdk, MAPK, GSK3, CLK families; STE = homologs of yeast sterile 7, sterile 11, sterile 20 kinases; TK = tyrosine kinase; TKL = tyrosine kinase-like.
(§4) Kinase name Kinase family Residual Activity (%)

[4] = target: T2, p38-delta (Homo sapiens, UniProt O15264); test: 33PanQinase panel; assay type: biochemical; conditions: read-out: Residual Activity (%)
T2 construct: purchased ProQinase
Description: as §1, §2, §3, §4

[5] = target: T3, HIPK1 (Homo sapiens, UniProt Q86Z02); test: 33PanQinase panel; assay type: biochemical; conditions: HIPK1, 1 µM; read-out: Residual Activity (%)
T3 construct: purchased ProQinase
Description: as §1, §2, §3, §4

[6] = target: T4, SIK1 (Homo sapiens, UniProt P57059); test: 33PanQinase panel; assay type: biochemical; conditions: SIK1, 1 µM; read-out: Residual Activity (%)
T4 construct: purchased ProQinase
Description: as §1, §2, §3, §4

[7] = target: T5, ACV-R1B (Homo sapiens, UniProt P36896); test: 33PanQinase panel; assay type: biochemical; conditions: read-out: Residual Activity (%)
T5 construct: purchased ProQinase
Description: as §1, §2, §3, §4

[8] = target: T6, ACV-R2B (Homo sapiens, UniProt Q13705); test: 33PanQinase panel; assay type: biochemical; conditions: read-out: Residual Activity (%)
T6 construct: purchased ProQinase
Description: as §1, §2, §3, §4

[9] = target: T7, BMPR1A (Homo sapiens, UniProt P36894); test: 33PanQinase panel; assay type: biochemical; conditions: read-out: Residual Activity (%)
T7 construct: purchased ProQinase
Description: as §1, §2, §3, §4

[10] = target: T8, MEKK2 (Homo sapiens, UniProt Q9Y2U5); test: 33PanQinase panel; assay type: biochemical; conditions: MEKK2, 1 µM; read-out: Residual Activity (%)
T8 construct: purchased ProQinase
Description: as §1, §2, §3, §4

[11] = target: T9, PKA (Homo sapiens, UniProt P17612); test: 33PanQinase panel; assay type: biochemical; conditions: read-out: Residual Activity (%)
T9 construct: purchased ProQinase
Description: as §1, §2, §3, §4

[12] = target: T10, MKK6 S207D/T211D** (Homo sapiens, UniProt P52564, S207D/T211D); test: 33PanQinase panel; assay type: biochemical; conditions: read-out: Residual Activity (%)
T10 construct: purchased ProQinase
Description: as §1, §2, §3, §4

[13] = target: T11, ERBB2 (Homo sapiens, UniProt P04626); test: 33PanQinase panel; assay type: biochemical; conditions: ERBB2, 1 µM; read-out: Residual Activity (%)
T11 construct: purchased ProQinase
Description: as §1, §2, §3, §4

[14] = target: T12, TRK-C (Homo sapiens, UniProt Q16288); test: 33PanQinase panel; assay type: biochemical; conditions: read-out: Residual Activity (%)
T12 construct: purchased ProQinase
Description: as §1, §2, §3, §4

[15] = target: T13, CDK1/CycE1 (Homo sapiens, UniProt P06493); test: 33PanQinase panel; assay type: biochemical; conditions: CDK1/CycE1, 1 µM; read-out: Residual Activity (%)
T13 construct: purchased ProQinase
Description: as §1, §2, §3, §4

[16] = target: T14, FGF-R1 (Homo sapiens, UniProt P11362); test: 33PanQinase panel; assay type: biochemical; conditions: FGF-R1, 1 µM; read-out: Residual Activity (%)
T14 construct: purchased ProQinase
Description: as §1, §2, §3, §4

[17] = target: T15, GRK2 (Homo sapiens, UniProt P25098); test: 33PanQinase panel; assay type: biochemical; conditions: GRK2, 1 µM; read-out: Residual Activity (%)
T15 construct: purchased ProQinase
Description: as §1, §2, §3, §4

[18] = target: T16, EPHA7 (Homo sapiens, UniProt Q15375); test: 33PanQinase panel; assay type: biochemical; conditions: EPHA7, 1 µM; read-out: Residual Activity (%)
T16 construct: purchased ProQinase
Description: as §1, §2, §3, §4

T6 sequence (Q13705 19-512): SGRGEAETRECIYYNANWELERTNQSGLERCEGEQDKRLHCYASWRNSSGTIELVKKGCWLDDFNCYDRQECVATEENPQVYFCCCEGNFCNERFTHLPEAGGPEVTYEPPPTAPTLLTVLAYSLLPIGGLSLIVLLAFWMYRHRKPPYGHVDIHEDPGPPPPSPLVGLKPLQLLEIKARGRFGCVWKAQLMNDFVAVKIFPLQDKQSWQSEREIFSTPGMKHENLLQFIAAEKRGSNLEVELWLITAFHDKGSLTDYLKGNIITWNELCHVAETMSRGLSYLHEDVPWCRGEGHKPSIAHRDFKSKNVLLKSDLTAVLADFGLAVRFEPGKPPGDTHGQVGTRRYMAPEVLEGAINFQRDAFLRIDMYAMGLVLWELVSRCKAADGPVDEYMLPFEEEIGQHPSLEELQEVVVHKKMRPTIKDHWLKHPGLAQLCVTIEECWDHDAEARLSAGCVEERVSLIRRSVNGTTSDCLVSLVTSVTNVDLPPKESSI
T11 sequence (P04626 23-1255): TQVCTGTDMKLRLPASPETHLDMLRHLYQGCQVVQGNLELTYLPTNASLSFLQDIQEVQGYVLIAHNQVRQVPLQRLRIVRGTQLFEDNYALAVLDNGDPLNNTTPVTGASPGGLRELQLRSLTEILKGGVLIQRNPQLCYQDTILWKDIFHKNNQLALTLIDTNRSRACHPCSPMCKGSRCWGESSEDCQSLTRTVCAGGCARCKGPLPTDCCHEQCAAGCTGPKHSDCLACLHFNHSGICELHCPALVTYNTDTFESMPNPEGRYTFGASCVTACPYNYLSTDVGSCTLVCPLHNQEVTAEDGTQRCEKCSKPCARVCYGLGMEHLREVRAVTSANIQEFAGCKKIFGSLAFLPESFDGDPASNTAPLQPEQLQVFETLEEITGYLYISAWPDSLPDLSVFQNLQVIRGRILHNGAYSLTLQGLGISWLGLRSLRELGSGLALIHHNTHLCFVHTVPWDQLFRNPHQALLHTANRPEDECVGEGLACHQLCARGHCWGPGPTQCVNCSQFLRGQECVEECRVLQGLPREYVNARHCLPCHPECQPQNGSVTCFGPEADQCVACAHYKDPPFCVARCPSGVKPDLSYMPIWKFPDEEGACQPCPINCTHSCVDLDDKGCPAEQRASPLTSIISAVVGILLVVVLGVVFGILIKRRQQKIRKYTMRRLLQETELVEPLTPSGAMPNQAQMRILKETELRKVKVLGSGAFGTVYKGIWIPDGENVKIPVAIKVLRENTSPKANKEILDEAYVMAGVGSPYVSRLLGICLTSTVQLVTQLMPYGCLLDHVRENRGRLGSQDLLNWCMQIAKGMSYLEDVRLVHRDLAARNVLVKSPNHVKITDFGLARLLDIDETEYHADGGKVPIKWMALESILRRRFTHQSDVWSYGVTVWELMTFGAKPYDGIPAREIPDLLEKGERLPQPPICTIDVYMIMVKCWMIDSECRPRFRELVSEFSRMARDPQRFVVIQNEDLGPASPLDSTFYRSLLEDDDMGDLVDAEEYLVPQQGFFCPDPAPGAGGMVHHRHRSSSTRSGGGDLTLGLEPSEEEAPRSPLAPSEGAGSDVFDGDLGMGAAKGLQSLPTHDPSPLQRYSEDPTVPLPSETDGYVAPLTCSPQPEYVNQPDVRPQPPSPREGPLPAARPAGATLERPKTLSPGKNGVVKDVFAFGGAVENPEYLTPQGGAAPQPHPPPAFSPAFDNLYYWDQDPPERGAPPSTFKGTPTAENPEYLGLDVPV
T5 sequence (P36896 24-505): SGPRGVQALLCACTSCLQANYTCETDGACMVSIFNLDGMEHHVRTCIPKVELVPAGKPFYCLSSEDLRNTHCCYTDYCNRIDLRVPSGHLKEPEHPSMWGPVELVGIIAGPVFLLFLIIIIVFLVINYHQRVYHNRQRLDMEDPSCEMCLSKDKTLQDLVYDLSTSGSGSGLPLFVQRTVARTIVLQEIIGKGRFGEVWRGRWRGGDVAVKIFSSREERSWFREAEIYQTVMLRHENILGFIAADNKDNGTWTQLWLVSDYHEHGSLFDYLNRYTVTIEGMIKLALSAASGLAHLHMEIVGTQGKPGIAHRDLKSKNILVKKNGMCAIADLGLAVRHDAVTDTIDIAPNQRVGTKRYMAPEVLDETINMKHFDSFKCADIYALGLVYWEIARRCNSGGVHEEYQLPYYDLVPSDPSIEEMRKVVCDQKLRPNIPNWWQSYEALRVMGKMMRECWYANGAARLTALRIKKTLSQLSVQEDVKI
T15 sequence (P25098 whole entry): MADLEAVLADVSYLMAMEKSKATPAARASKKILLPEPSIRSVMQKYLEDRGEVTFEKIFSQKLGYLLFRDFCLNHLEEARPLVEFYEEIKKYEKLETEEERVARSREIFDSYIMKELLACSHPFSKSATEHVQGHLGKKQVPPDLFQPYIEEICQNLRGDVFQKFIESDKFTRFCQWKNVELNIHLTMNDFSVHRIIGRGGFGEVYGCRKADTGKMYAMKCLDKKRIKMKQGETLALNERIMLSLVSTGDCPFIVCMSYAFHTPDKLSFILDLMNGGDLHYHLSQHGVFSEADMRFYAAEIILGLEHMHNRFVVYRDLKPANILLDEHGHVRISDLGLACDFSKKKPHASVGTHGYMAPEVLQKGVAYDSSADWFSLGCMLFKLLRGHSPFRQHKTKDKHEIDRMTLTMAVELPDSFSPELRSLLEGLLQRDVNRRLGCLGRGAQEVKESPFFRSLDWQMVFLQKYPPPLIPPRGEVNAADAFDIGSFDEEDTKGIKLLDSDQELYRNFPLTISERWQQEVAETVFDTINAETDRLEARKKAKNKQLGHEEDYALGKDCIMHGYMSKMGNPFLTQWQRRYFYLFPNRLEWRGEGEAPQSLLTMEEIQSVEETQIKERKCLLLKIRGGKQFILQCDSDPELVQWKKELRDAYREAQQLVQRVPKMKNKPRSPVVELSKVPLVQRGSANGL
T2 sequence (O15264 whole entry): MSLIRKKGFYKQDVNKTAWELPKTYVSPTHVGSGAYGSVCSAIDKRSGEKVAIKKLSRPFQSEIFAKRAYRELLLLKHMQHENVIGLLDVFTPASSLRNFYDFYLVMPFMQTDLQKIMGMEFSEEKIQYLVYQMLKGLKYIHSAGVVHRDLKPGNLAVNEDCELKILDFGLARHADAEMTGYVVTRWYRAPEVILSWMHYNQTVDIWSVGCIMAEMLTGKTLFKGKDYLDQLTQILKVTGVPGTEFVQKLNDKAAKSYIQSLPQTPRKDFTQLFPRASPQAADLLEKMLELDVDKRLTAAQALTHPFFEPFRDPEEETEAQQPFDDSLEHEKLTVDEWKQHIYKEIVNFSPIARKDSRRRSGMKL
T12 sequence (Q16288 32-839): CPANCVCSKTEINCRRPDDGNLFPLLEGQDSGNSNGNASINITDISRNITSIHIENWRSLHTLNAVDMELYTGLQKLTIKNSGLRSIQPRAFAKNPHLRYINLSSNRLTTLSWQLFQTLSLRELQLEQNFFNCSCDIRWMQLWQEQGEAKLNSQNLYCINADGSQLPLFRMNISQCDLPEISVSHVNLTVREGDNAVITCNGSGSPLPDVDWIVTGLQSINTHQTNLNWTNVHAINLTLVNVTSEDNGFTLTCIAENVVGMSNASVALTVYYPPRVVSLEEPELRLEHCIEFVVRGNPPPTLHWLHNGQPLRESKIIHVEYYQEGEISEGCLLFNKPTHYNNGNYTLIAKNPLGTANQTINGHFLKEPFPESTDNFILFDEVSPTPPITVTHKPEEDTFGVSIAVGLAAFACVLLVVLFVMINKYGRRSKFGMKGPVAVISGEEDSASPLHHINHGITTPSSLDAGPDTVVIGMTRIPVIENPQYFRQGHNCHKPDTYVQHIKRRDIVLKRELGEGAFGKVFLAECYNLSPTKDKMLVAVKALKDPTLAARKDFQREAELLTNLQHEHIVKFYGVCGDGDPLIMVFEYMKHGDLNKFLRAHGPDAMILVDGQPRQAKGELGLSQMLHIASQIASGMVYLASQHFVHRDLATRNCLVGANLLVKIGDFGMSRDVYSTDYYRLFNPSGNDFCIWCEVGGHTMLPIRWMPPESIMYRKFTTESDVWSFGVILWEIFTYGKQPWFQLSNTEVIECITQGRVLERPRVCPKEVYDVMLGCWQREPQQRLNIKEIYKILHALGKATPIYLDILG
T7 sequence (P36894 24-532): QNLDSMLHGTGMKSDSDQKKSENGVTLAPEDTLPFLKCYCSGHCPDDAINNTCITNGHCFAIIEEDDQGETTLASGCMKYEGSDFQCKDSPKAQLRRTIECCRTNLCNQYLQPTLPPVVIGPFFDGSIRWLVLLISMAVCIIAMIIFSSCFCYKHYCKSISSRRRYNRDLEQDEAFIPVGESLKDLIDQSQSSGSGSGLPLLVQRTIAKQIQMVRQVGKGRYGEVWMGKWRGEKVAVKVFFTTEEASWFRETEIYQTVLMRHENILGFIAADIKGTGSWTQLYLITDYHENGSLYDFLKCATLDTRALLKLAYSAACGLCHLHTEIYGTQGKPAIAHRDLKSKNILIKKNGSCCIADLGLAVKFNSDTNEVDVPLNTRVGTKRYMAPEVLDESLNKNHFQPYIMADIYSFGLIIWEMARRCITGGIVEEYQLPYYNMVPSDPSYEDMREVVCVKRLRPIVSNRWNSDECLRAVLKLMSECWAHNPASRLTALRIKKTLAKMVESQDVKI
T10 sequence (P52564 whole entry S207D/T211D): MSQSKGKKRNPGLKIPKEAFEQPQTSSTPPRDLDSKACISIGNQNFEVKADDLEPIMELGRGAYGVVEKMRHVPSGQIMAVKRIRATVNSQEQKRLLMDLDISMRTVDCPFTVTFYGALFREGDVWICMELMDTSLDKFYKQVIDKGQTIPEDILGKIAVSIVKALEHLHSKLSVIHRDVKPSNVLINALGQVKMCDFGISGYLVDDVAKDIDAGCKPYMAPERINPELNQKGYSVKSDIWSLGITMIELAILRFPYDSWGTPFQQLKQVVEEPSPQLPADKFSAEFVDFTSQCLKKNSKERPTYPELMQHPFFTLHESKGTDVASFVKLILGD

Which viability at 5 µM ([1]; 5 µM) does the source give for `COc1ccc(-c2cc(C(=O)Nc3cc(-c4c(-c5ccc(F)cc5)noc4C(C)C)ccn3)n(CC3NCC(O)C3O)c2)cc1` (stereo not drawn) [29d] here?
Its viability at 5 µM is 100 ± 16%.

And the viability at 10 µM ([1]; 10 µM)?
Its viability at 10 µM is 76 ± 19%.

And the viability at 20 µM ([1]; 20 µM)?
The viability at 20 µM was 5.6 ± 1.5%.

What about the EC50 [1] of the same compound?
Its EC50 is 10 ± 2 µM.

What about the “formation of Pictet-Spengler products in aqueous solution with PEG” value [2] of the same compound?
The value was “significant product formation”.

What about the remaining activity at 1 µM [3] of the same compound?
The remaining activity at 1 µM was 100%.

What about the remaining activity at 1 µM [4] of the same compound?
The remaining activity at 1 µM was 99%.

And the remaining activity at 1 µM [5]?
Its remaining activity at 1 µM is 98%.

And the remaining activity at 1 µM [6]?
The remaining activity at 1 µM was 92%.

And the remaining activity at 1 µM [7]?
The remaining activity at 1 µM was 103%.

And the remaining activity at 1 µM [8]?
The remaining activity at 1 µM was 127%.

And the remaining activity at 1 µM [9]?
The remaining activity at 1 µM was 96%.

And the remaining activity at 1 µM [10]?
Its remaining activity at 1 µM is 111%.

What about the remaining activity at 1 µM [11] of the same compound?
Its remaining activity at 1 µM is 96%.

And the remaining activity at 1 µM [12]?
The remaining activity at 1 µM was 91%.

And the remaining activity at 1 µM [13]?
The remaining activity at 1 µM was 121%.

What about the remaining activity at 1 µM [14] of the same compound?
Its remaining activity at 1 µM is 105%.

And the remaining activity at 1 µM [15]?
The remaining activity at 1 µM was 100%.

What about the remaining activity at 1 µM [16] of the same compound?
The remaining activity at 1 µM was 138%.

And the remaining activity at 1 µM [17]?
The remaining activity at 1 µM was 87%.

What about the remaining activity at 1 µM [18] of the same compound?
The remaining activity at 1 µM was 100%.
